Test results taken from article PMC10039877 (Scientific Reports, 2023).
Several values for one entry are separate records, joined by “and”; a condition that tells them apart may be missing. Equal values may be shown once.

Target: T1, BChE (Equus caballus, UniProt P81908)
Experiment: Enzyme kinetics study (Lineweaver-Burk plots) of 8c on BChE
Format: biochemical
Settings: BTCI substrate 0.05 to 0.8 mM, Lineweaver-Burk
Method: The inhibition type was determined by analyzing the Lineweaver–Burk plots.
All common chemicals were purchased from commercial sources and used without further purification. The water used was distilled water. Reaction progress was monitored using analytical thin layer chromatography (TLC, detected by UV light 254 nm) on precoated silica gel HSGF254 plates (Qingdao Haiyang Chemical Plant, China). Column chromatography was performed on silica gel (200 ~ 300 mesh; Qingdao Dingkang Chemical Inc.). […] Proton coupling patterns are described as singlet (s), doublet (d), double doublet (dd), triplet (t), and multiplet (m). ESI–MS date were recorded on a Waters Quattro Premier XE triquadrupole mass spectrometer (Waters Corporation, USA), while ESI-HRMS date were recorded on a Q-TOF Priemier mass spectrometer (Micromass, Manchester, UK). The enzyme kinetic assay was performed on an EnSpire Enzyme Marker (Thermos Fisher, USA).
Kinetic studies were performed in same method as described in BChE inhibition assays. The substrate (BTCI) at five concentrations (from 0.05 to 0.8 mM) was determined for 8c at different […] to reveal its inhibition model, and reciprocal plots of 1/V versus 1/[S]. The kinetic parameters and apparent inhibition constants were calculated by the “Enzyme kinetics” module of Prism.

T1 sequence (P81908 whole entry): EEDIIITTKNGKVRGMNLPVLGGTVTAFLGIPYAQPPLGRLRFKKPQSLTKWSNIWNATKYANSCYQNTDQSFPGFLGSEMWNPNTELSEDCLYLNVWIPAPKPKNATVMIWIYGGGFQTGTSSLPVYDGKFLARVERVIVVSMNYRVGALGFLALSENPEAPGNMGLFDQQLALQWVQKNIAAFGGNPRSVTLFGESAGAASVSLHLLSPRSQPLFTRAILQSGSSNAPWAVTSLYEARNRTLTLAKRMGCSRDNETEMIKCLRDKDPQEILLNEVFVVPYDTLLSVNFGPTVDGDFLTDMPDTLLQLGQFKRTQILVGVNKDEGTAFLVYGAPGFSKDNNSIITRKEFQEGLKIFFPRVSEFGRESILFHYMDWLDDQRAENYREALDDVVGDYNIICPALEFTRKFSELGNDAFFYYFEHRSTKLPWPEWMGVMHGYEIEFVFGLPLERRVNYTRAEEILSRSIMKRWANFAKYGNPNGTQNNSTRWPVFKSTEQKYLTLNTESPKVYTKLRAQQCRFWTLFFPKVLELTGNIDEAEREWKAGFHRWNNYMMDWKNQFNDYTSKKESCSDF

SMILES	Ki	Vmax
Cc1cc(C)c(NC(=O)CN(C)C(=O)C(=O)c2c[nH]c3ccccc23)c(C)c1 [8c, 2-(1H-indol-3-yl)-N-(2-(mesitylamino)-2-oxoethyl)-N-methyl-2-oxoacetamide]	3.27 µM	105.26

Same assay, conditions: Lineweaver-Burk plot

SMILES	inhibition type
Cc1cc(C)c(NC(=O)CN(C)C(=O)C(=O)c2c[nH]c3ccccc23)c(C)c1 [8c, 2-(1H-indol-3-yl)-N-(2-(mesitylamino)-2-oxoethyl)-N-methyl-2-oxoacetamide]	mixed-type

Target: T1, BChE
Experiment: not given
Design: method as in PMID 33759552
Settings: previous study; cited from earlier work

SMILES	inhibition type
COc1cccc(NC(=O)CN(C)C(C)C(=O)c2c[nH]c3ccccc23)c1 (stereo not drawn) [compound 970180]	mixed-type

Target: T1, BChE
Experiment: biochemical
Format: biochemical
Settings: BChE: IC50 (μM) ± SEM, in vitro, triplicates

SMILES	IC50
Cc1cccc(NC(=O)OCCN(C)C(=O)C(=O)c2c[nH]c3ccccc23)c1 [17a, 2-(2-(1H-indol-3-yl)-N-methyl-2-oxoacetamido)ethyl m-tolylcarbamate]	> 50 µM
CN(CCOC(=O)Nc1cccc(Cl)c1)C(=O)C(=O)c1c[nH]c2ccccc12 [17d, 2-(2-(1H-indol-3-yl)-N-methyl-2-oxoacetamido)ethyl (3-chlorophenyl)carbamate]	> 50 µM
CCc1ccc(NC(=O)OCCN(C)C(=O)C(=O)c2c[nH]c3ccccc23)cc1 [17b, 2-(2-(1H-indol-3-yl)-N-methyl-2-oxoacetamido)ethyl (4-ethylphenyl)carbamate]	> 50 µM
Cc1ccccc1NC(=O)OCCN(C)C(=O)C(=O)c1c[nH]c2ccccc12 [17c, 2-(2-(1H-indol-3-yl)-N-methyl-2-oxoacetamido)ethyl o-tolylcarbamate]	> 50 µM

Same assay, conditions: in vitro, triplicates; read-out: BChE: IC50 (μM) ± SEM

SMILES	IC50
Cc1ccc(NC(=O)CNC(=O)C(=O)c2c[nH]c3ccccc23)cc1C [13c, N-(2-((3,4-dimethylphenyl)amino)-2-oxoethyl)-2-(1H-indol-3-yl)-2-oxoacetamide]	> 50 µM
Cc1cc(C)c(NC(=O)CN(C)C(=O)C(=O)c2c[nH]c3ccccc23)c(C)c1 [8c, 2-(1H-indol-3-yl)-N-(2-(mesitylamino)-2-oxoethyl)-N-methyl-2-oxoacetamide]	< 50 µM and 3.95 µM and 3.94 µM
CN(CC(=O)Nc1ccccc1F)C(=O)C(=O)c1c[nH]c2ccccc12 [8a, N-(2-((2-fluorophenyl)amino)-2-oxoethyl)-2-(1H-indol-3-yl)-N-methyl-2-oxoacetamide]	> 50 µM
COc1ccc(NC(=O)CN(C)C(=O)C(=O)c2c[nH]c3ccccc23)c(C)c1 [8b, 2-(1H-indol-3-yl)-N-(2-((4-methoxy-2-methylphenyl)amino)-2-oxoethyl)-N-methyl-2-oxoacetamide]	> 50 µM
O=C(CNC(=O)C(=O)c1c[nH]c2ccccc12)Nc1ccccc1F [13k, N-(2-((2-fluorophenyl)amino)-2-oxoethyl)-2-(1H-indol-3-yl)-2-oxoacetamide]	> 50 µM
Cc1ccccc1NC(=O)CNC(=O)C(=O)c1c[nH]c2ccccc12 [13g, 2-(1H-indol-3-yl)-2-oxo-N-(2-oxo-2-(o-tolylamino)ethyl)acetamide]	> 50 µM
Cc1cc(C)cc(NC(=O)CNC(=O)C(=O)c2c[nH]c3ccccc23)c1 [13f, N-(2-((3,5-dimethylphenyl)amino)-2-oxoethyl)-2-(1H-indol-3-yl)-2-oxoacetamide]	> 50 µM
Cc1ccccc1NC(=O)CN(C)C(=O)C(=O)c1c[nH]c2ccccc12 [8d, 2-(1H-indol-3-yl)-N-methyl-2-oxo-N-(2-oxo-2-(o-tolylamino)ethyl)acetamide]	< 50 µM and 19.6 µM
Cc1ccc(NC(=O)CNC(=O)C(=O)c2c[nH]c3ccccc23)cc1Cl [13h, N-(2-((3-chloro-4-methylphenyl)amino)-2-oxoethyl)-2-(1H-indol-3-yl)-2-oxoacetamide]	> 50 µM
COc1ccc(NC(=O)CNC(=O)C(=O)c2c[nH]c3ccccc23)c(OC)c1 [13i, N-(2-((2,4-dimethoxyphenyl)amino)-2-oxoethyl)-2-(1H-indol-3-yl)-2-oxoacetamide]	> 50 µM
CCCCc1ccc(NC(=O)CNC(=O)C(=O)c2c[nH]c3ccccc23)cc1 [13d, N-(2-((4-butylphenyl)amino)-2-oxoethyl)-2-(1H-indol-3-yl)-2-oxoacetamide]	> 50 µM
Cc1cc(C)c(NC(=O)CNC(=O)C(=O)c2c[nH]c3ccccc23)c(C)c1 [13e, 2-(1H-indol-3-yl)-N-(2-(mesitylamino)-2-oxoethyl)-2-oxoacetamide]	> 50 µM
COc1cccc(NC(=O)CNC(=O)C(=O)c2c[nH]c3ccccc23)c1 [13j, 2-(1H-indol-3-yl)-N-(2-((3-methoxyphenyl)amino)-2-oxoethyl)-2-oxoacetamide]	> 50 µM
COc1ccc(NC(=O)CNC(=O)C(=O)c2c[nH]c3ccccc23)cc1 [13b, 2-(1H-indol-3-yl)-N-(2-((4-methoxyphenyl)amino)-2-oxoethyl)-2-oxoacetamide]	> 50 µM
COc1ccccc1NC(=O)CNC(=O)C(=O)c1c[nH]c2ccccc12 [13a, 2-(1H-indol-3-yl)-N-(2-((2-methoxyphenyl)amino)-2-oxoethyl)-2-oxoacetamide]	> 50 µM

Target: T1, BChE
Experiment: not given
Design: method as in PMID 33759552
Settings: in vitro; found in previous study; read-out: BChE IC50 of starting compound; cited from earlier work

SMILES	IC50
COc1cccc(NC(=O)CN(C)C(C)C(=O)c2c[nH]c3ccccc23)c1 (stereo not drawn) [compound 970180]	4.24 ± 0.16 µM
